# Reference: US10968178B2, “IP6K inhibitors” (TAKEDA PHARMACEUTICAL COMPANY LIMITED, priority 2017, dated 2021)
# Key:
# Format in all cases: biochemical
# [1] = target: T1, human IP6K3 (Homo sapiens, UniProt Q96PC2); experiment: IP6K enzyme inhibitory assay (ADP-Glo Kinase Assay), human IP6K3; conditions: compound concentration 0.1 μM; read-out: ADP-Glo method inhibitory rate (%) human IP6K3
# T1 construct: human IP6K3 (1-410) gene; made in house; host or cells: BL21 (DE3) Escherichia coli
# T1 sequence (Q96PC2 1-410): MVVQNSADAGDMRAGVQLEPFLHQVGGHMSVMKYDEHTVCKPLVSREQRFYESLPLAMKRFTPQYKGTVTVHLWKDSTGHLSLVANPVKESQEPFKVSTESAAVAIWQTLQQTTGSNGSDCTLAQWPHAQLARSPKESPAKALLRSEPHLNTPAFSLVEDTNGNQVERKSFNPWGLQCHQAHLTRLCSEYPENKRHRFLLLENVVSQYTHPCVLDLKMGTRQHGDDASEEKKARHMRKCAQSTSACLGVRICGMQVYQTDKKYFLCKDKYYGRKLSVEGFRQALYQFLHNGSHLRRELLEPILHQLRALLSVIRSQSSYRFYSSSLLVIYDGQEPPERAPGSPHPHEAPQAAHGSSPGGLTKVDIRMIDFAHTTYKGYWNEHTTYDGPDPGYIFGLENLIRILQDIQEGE
# Method in brief: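 Recombinant human IP6K (IP6K3 residues 1-410, E. coli, Ni-NTA purified) incubated with compound in 20 mM HEPES pH 7.5, 6 mM MgCl2, 0.01% Tween-20, 1 mM DTT for 60 min at room temperature. ADP formed read as luminescence by ADP-Glo.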
# [2] = target: T2, human IP6K2 (Homo sapiens, UniProt Q9UHH9); experiment: IP6K enzyme inhibitory assay (ADP-Glo Kinase Assay), human IP6K2; conditions: compound concentration 0.1 μM; read-out: ADP-Glo method inhibitory rate (%) human IP6K2
# T2 construct: human IP6K2 (1-426) gene; GST; made in house; host or cells: Sf-9 insect cells
# T2 sequence (Q9UHH9 1-426): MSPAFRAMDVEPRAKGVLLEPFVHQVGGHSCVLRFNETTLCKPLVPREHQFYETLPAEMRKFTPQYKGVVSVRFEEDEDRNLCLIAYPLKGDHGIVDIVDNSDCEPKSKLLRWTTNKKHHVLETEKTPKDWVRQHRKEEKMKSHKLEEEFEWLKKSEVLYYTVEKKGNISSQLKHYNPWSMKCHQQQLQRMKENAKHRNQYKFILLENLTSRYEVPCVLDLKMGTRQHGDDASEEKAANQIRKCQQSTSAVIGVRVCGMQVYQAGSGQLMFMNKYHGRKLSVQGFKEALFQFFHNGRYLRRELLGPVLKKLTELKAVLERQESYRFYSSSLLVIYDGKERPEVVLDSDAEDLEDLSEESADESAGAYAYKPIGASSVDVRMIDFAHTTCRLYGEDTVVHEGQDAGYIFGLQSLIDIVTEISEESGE
# Method in brief: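 The inhibitory activity against human IP6K2 was measured with Promega's ADP-Glo Kinase Assay in 384 well plates. Test compound, diluted in assay buffer (20 mM HEPES (pH 7.5), 6 mM MgCl2, 0.01% Tween-20, 1 mM DTT), was added at 2 μL. Adding 2 μL of diluted enzyme started the reaction, which ran for 60 min at room temperature. Next, 3 μL ADP-Glo solution (30 min) and 6 μL Kinase-Detection solution (60 min) were added, and luminescence was read on an Envision plate reader.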
# [3] = target: T3, human IP6K1 (Homo sapiens, UniProt Q92551); experiment: IP6K enzyme inhibitory assay (ADP-Glo Kinase Assay), human IP6K1; conditions: compound concentration 0.1 μM; read-out: ADP-Glo method inhibitory rate (%) human IP6K1
# T3 construct: human IP6K1 (1-441) gene; GST; made in house; host or cells: Sf-9 insect cells
# Method in brief: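 Inhibition of human IP6K1 was determined with Promega's ADP-Glo Kinase Assay in 384 well plates. Test compound diluted in assay buffer (20 mM HEPES (pH 7.5), 6 mM MgCl2, 0.01% Tween-20, 1 mM DTT) was added at 2 μL, then 2 μL of enzyme started the reaction for 60 min at room temperature. Next came 3 μL ADP-Glo solution for 30 min and 6 μL Kinase-Detection solution for 60 min. Luminescence was read on an Envision plate reader.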
# T3 sequence (Q92551 whole entry): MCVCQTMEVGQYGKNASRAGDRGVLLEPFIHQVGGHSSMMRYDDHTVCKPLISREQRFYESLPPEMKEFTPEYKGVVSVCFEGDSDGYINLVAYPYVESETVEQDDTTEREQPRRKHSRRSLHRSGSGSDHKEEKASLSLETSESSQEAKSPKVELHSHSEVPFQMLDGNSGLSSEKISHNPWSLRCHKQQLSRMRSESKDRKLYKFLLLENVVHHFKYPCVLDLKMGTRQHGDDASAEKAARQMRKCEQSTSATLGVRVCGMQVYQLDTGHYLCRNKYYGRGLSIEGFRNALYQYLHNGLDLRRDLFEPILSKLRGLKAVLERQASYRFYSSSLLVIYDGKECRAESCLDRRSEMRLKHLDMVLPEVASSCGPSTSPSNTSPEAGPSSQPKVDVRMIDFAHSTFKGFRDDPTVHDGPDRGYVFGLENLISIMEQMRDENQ
Structure (SMILES),inhibition at 0.1 µM [1],inhibition at 0.1 µM [2],inhibition at 0.1 µM [3]
"O=C(O)c1ccc2c(n1)[C@]1(CC[C@H](Oc3ccc(F)cc3F)CC1)C(=O)N2 [Example 84, (1s,4s)-4-(2,4-difluorophenoxy)-2′-oxo-1′,2′-dihydrospiro[cyclohexane-1,3′-pyrrolo[3,2-b]pyridine]-5′-carboxylic acid]",91%,59%,75%
"O=C(O)c1ccc2c(n1)[C@]1(CC[C@H](Oc3ccccc3Cl)CC1)C(=O)N2 [Example 85, (1s,4s)-4-(2-chlorophenoxy)-2′-oxo-1′,2′-dihydrospiro[cyclohexane-1,3′-pyrrolo[3,2-b]pyridine]-5′-carboxylic acid]",95%,71%,81%
"O=C(O)c1ccc2c(n1)[C@]1(CC[C@H](Oc3c(F)cc(Cl)cc3F)CC1)C(=O)N2 [Example 86, (1s,4s)-4-(4-chloro-2,6-difluorophenoxy)-2′-oxo-1′,2′-dihydrospiro[cyclohexane-1,3′-pyrrolo[3,2-b]pyridine]-5′-carboxylic acid]",80%,50%,55%
"O=C(O)c1ccc2c(c1)[C@]1(CC[C@H](Oc3ncc(Cl)cc3F)CC1)C(=O)N2 [Example 87, (1s,4s)-4-((5-chloro-3-fluoropyridin-2-yl)oxy)-2′-oxo-1′,2′-dihydrospiro[cyclohexane-1,3′-indole]-5′-carboxylic acid]",102%,102%,107%
"O=C(O)c1ccc2c(n1)[C@]1(CC[C@H](Oc3ccc(Cl)cc3)CC1)C(=O)N2 [Example 88, (1s,4s)-4-(4-chlorophenoxy)-2′-oxo-1′,2′-dihydrospiro[cyclohexane-1,3′-pyrrolo[3,2-b]pyridine]-5′-carboxylic acid]",97%,97%,101%
"Cc1cc(Cl)cc(C)c1O[C@H]1CC[C@]2(CC1)C(=O)Nc1ccc(C(=O)O)nc12 [Example 89, (1s,4s)-4-(4-chloro-2,6-dimethylphenoxy)-2′-oxo-1′,2′-dihydrospiro[cyclohexane-1,3′-pyrrolo[3,2-b]pyridine]-5′-carboxylic acid]",26%,14%,9%
"O=C(O)c1ccc2c(n1)[C@]1(CC[C@@H](Oc3ccccc3Cl)CC1)C(=O)N2 [Example 90, (1r,4r)-4-(2-chlorophenoxy)-2′-oxo-1′,2′-dihydrospiro[cyclohexane-1,3′-pyrrolo[3,2-b]pyridine]-5′-carboxylic acid]",61%,47%,49%
"O=C(O)c1ccc2c(n1)[C@]1(CC[C@@H](Oc3ccc(F)cc3F)CC1)C(=O)N2 [Example 91, (1r,4r)-4-(2,4-difluorophenoxy)-2′-oxo-1′,2′-dihydrospiro[cyclohexane-1,3′-pyrrolo[3,2-b]pyridine]-5′-carboxylic acid]",79%,60%,69%
"O=C(O)c1ccc2c(n1)[C@]1(CC[C@@H](Oc3ccc(Cl)cc3)CC1)C(=O)N2 [Example 92, (1r,4r)-4-(4-chlorophenoxy)-2′-oxo-1′,2′-dihydrospiro[cyclohexane-1,3′-pyrrolo[3,2-b]pyridine]-5′-carboxylic acid]",98%,92%,97%
"O=C(O)c1ccc2c(n1)[C@]1(CC[C@@H](Oc3c(F)cc(Cl)cc3F)CC1)C(=O)N2 [Example 93, (1r,4r)-4-(4-chloro-2,6-difluorophenoxy)-2′-oxo-1′,2′-dihydrospiro[cyclohexane-1,3′-pyrrolo[3,2-b]pyridine]-5′-carboxylic acid]",101%,96%,92%
"Cc1cc(Cl)cc(C)c1O[C@H]1CC[C@@]2(CC1)C(=O)Nc1ccc(C(=O)O)nc12 [Example 94, (1r,4r)-4-(4-chloro-2,6-dimethylphenoxy)-2′-oxo-1′,2′-dihydrospiro[cyclohexane-1,3′-pyrrolo[3,2-b]pyridine]-5′-carboxylic acid]",101%,97%,91%
"O=C(O)c1ccc2c(n1)[C@]1(CC[C@@H](Oc3ccc(Cl)cc3C(F)(F)F)CC1)C(=O)N2 [Example 95, (1r,4r)-4-(4-chloro-2-(trifluoromethyl)phenoxy)-2′-oxo-1′,2′-dihydrospiro[cyclohexane-1,3′-pyrrolo[3,2-b]pyridine]-5′-carboxylic acid]",96%,91%,88%
"O=C(O)c1ccc2c(n1)[C@]1(CC[C@H](Oc3ccc(Cl)cc3C(F)(F)F)CC1)C(=O)N2 [Example 96, (1s,4s)-4-(4-chloro-2-(trifluoromethyl)phenoxy)-2′-oxo-1′,2′-dihydrospiro[cyclohexane-1,3′-pyrrolo[3,2-b]pyridine]-5′-carboxylic acid]",101%,99%,95%
"O=C(O)c1ccc2c(n1)[C@]1(CC[C@@H](Oc3ncc(Cl)cc3C(F)(F)F)CC1)C(=O)N2 [Example 99, (1r,4r)-4-((5-chloro-3-(trifluoromethyl)pyridin-2-yl)oxy)-2′-oxo-1′,2′-dihydrospiro[cyclohexane-1,3′-pyrrolo[3,2-b]pyridine]-5′-carboxylic acid]",83%,64%,51%
"O=C(O)c1ccc2c(n1)[C@]1(CC[C@H](Oc3ncc(Cl)cc3F)CC1)C(=O)N2 [Example 100, (1s,4s)-4-((5-chloro-3-fluoropyridin-2-yl)oxy)-2′-oxo-1′,2′-dihydrospiro[cyclohexane-1,3′-pyrrolo[3,2-b]pyridine]-5′-carboxylic acid]",97%,98%,76%
"O=C(O)c1ccc2c(n1)[C@]1(CC[C@H](Oc3ccc(Cl)cc3Cl)CC1)C(=O)N2 [Example 101, (1s,4s)-4-(2,4-dichlorophenoxy)-2′-oxo-1′,2′-dihydrospiro[cyclohexane-1,3′-pyrrolo[3,2-b]pyridine]-5′-carboxylic acid]",98%,100%,104%
"O=C(O)c1ccc2c(n1)[C@]1(CC[C@@H](Oc3ccc(Cl)cc3Cl)CC1)C(=O)N2 [Example 102, (1r,4r)-4-(2,4-dichlorophenoxy)-2′-oxo-1′,2′-dihydrospiro[cyclohexane-1,3′-pyrrolo[3,2-b]pyridine]-5′-carboxylic acid]",97%,94%,105%
"Cc1cc(C(F)(F)F)cnc1O[C@H]1CC[C@]2(CC1)C(=O)Nc1ccc(C(=O)O)nc12 [Example 103, (1s,4s)-4-((3-methyl-5-(trifluoromethyl)pyridin-2-yl)oxy)-2′-oxo-1′,2′-dihydrospiro[cyclohexane-1,3′-pyrrolo[3,2-b]pyridine]-5′-carboxylic acid]",99%,99%,98%
"Cc1ccc(C#N)c(O[C@H]2CC[C@]3(CC2)C(=O)Nc2ccc(C(=O)O)cc23)n1 [Example 104, (1s,4s)-4-((3-cyano-6-methylpyridin-2-yl)oxy)-2′-oxo-1′,2′-dihydrospiro[cyclohexane-1,3′-indole]-5′-carboxylic acid]",98%,99%,95%
